Source: US20190151210A1, “METHOD AND COMPOSITION FOR TREATING SKIN CONDITIONS” (L'OREAL, priority 2016, published 2019)
Several values for one entry are separate records, joined by “and”; a condition that tells them apart may be missing. Equal entries are not always repeated.

Assay: solubility of active ingredients in base oil composition
Type: physicochemical
Conditions: for Loading (wt %), soluble in base oil composition: loading not marked with *
Text: The booster compositions described above include the active ingredients noted specifically for the categorical skin condition (e.g., skin brightness, skin wrinkles, visibility of pores, skin texture, and/or skin redness). In addition, the compositions cosolubilize to permit easy dispersion of the booster composition into the base oil composition. In addition to easy dispersion, the system according to the present disclosure ensures rapid homogeneity of the final products after combination of booster and base components by the consumer. In each of the booster compositions, at least one of the ingredients in the base oil composition are included in the booster compositions. For example, in one embodiment, squalane is included in each of the booster compositions. In one particularly advantageous embodiment, greater than about 20% or greater than about 25% or greater than about 30% or greater than about 35%, by weight of total composition squalane is included in each of the booster compositions. Visual assessment may be conducted to ensure cosolubility. For example, cosolubility may be determined by visual determination of incompatibility, immicible components, precipitates or other visual indicators indicating a lack of cosolubility.

SMILES	Loading (wt %), soluble in base oil composition	Loading (wt %), insoluble in base oil composition (loading marked * = Insoluble)
CCCCCCCCC(CCCCCC)C(=O)OC[C@H](OC(=O)C(CCCCCC)CCCCCCCC)[C@H]1OC(=O)C(OC(=O)C(CCCCCC)CCCCCCCC)=C1OC(=O)C(CCCCCC)CCCCCCCC (stereo partly shown) [Ascorbyl Tetraisopalmitate]	40% wt % and 50% wt % and 60% wt %	–
CC(c1ccccc1)c1ccc(O)cc1O (stereo not shown) [Phenylethyl Resorcinol]	5% wt % and 10% wt % and 15% wt %	–
O=C(O)c1ccccc1O [Salicylic Acid]	3% wt %	5%* wt % and 10%* wt % and 15%* wt %
